Laboratory results: ChEMBL document CHEMBL4177685, “Ionic liquid mediated stereoselective synthesis of alanine linked hybrid quinazoline-4(3H)-one derivatives perturbing the malarial reductase activity in folate pathway” (Bioorg Med Chem, 2017)
In brackets after ≈: the same amount, converted by molar mass.

Columns and labels:
Plasmodium falciparum = experiment: Antimalarial activity against Plasmodium falciparum in infected in human RBC; assay type: functional, organism-based; details: Erythrocyte
Dihydrofolate reductase = molecular target: T1, Dihydrofolate reductase (Bos taurus, UniProt P00376); experiment: Inhibition of bovine liver DHFR using FH2 as substrate preincubated for 2 mins followed by substrate addition
T1 sequence (P00376 whole entry): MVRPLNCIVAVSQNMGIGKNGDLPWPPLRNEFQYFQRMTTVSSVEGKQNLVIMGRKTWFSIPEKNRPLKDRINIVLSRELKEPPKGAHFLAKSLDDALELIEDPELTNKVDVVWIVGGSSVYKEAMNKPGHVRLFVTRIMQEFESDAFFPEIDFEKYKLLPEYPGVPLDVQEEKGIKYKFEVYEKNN

Vero = experiment: Cytotoxicity against African green monkey Vero cells up to 15 ug/ml after 72 hrs by MTT assay; assay type: cell-based; details: chlorocebus sabaeus
bovine liver DHFR = experiment: Selectivity index, ratio of IC50 for African green monkey Vero cells to IC50 for bovine liver DHFR; assay type: toxicity; details: read-out: Ratio IC50

Compound: CCc1nc(N)nc(N)c1-c1ccc(Cl)cc1 [PYRIMETHAMINE]
- IC50 (Plasmodium falciparum): 0.25 µg/mL (≈ 1.01 µM)

Compound: CC(=O)Nc1ccc(S(=O)(=O)NC(C)c2nc3ccccc3c(=O)n2/N=C/c2ccc(C)cc2)cc1 (stereo not given)
- IC50 (Plasmodium falciparum): 0.068 µg/mL (≈ 0.135 µM)
- IC50 (Dihydrofolate reductase): 165 nM
- Activity (Vero): Non-Toxic
- selectivity ratio (bovine liver DHFR): 181

Compound: CC(=O)Nc1ccc(S(=O)(=O)NC(C)c2nc3ccccc3c(=O)n2/N=C/c2cccc([N+](=O)[O-])c2)cc1 (stereo not given)
- IC50 (Plasmodium falciparum): 0.092 µg/mL (≈ 0.172 µM)
- IC50 (Dihydrofolate reductase): 99.1 nM
- Activity (Vero): Non-Toxic
- selectivity ratio (bovine liver DHFR): 283

Compound: CC(=O)Nc1ccc(S(=O)(=O)NC(C)c2nc3ccccc3c(=O)n2/N=C/c2cccc(Br)c2)cc1 (stereo not given)
- IC50 (Plasmodium falciparum): 1.02 µg/mL (≈ 1.8 µM)

Compound: CC(=O)Nc1ccc(S(=O)(=O)NC(C)c2nc3ccccc3c(=O)n2/N=C/c2ccccc2C)cc1 (stereo not given)
- IC50 (Plasmodium falciparum): 1.28 µg/mL (≈ 2.54 µM)

Compound: CC(=O)Nc1ccc(S(=O)(=O)NC(C)c2nc3ccccc3c(=O)n2/N=C/c2ccccc2F)cc1 (stereo not given)
- IC50 (Plasmodium falciparum): 0.7 µg/mL (≈ 1.38 µM)

Compound: CC(=O)Nc1ccc(S(=O)(=O)NC(C)c2nc3ccccc3c(=O)n2/N=C/c2ccc(O)cc2)cc1 (stereo not given)
- IC50 (Plasmodium falciparum): 0.72 µg/mL (≈ 1.42 µM)

Compound: CC(=O)Nc1ccc(S(=O)(=O)NC(C)c2nc3ccccc3c(=O)n2/N=C/c2ccccc2)cc1 (stereo not given)
- IC50 (Plasmodium falciparum): 1.1 µg/mL (≈ 2.25 µM)

Compound: CC(=O)Nc1ccc(S(=O)(=O)NC(C)c2nc3ccccc3c(=O)n2/N=C/c2ccc(F)cc2)cc1 (stereo not given)
- IC50 (Plasmodium falciparum): 0.084 µg/mL (≈ 0.166 µM)
- IC50 (Dihydrofolate reductase): 67 nM
- Activity (Vero): Non-Toxic
- selectivity ratio (bovine liver DHFR): 441

Compound: CC(=O)Nc1ccc(S(=O)(=O)NC(C)c2nc3ccccc3c(=O)n2/N=C/c2ccccc2O)cc1 (stereo not given)
- IC50 (Plasmodium falciparum): 1.05 µg/mL (≈ 2.08 µM)

Compound: COc1ccccc1/C=N/n1c(C(C)NS(=O)(=O)c2ccc(NC(C)=O)cc2)nc2ccccc2c1=O (stereo not given)
- IC50 (Plasmodium falciparum): 0.78 µg/mL (≈ 1.5 µM)

Compound: COc1cc(Cc2cnc(N)nc2N)cc(OC)c1OC [TRIMETHOPRIM]
- IC50 (Plasmodium falciparum): 0.38 µg/mL (≈ 1.31 µM)

Compound: CC(=O)Nc1ccc(S(=O)(=O)NC(C)c2nc3ccccc3c(=O)n2/N=C/c2ccc(Cl)cc2)cc1 (stereo not given)
- IC50 (Plasmodium falciparum): 0.72 µg/mL (≈ 1.37 µM)

Compound: COc1cccc(/C=N/n2c(C(C)NS(=O)(=O)c3ccc(NC(C)=O)cc3)nc3ccccc3c2=O)c1 (stereo not given)
- IC50 (Plasmodium falciparum): 1.02 µg/mL (≈ 1.97 µM)

Compound: CC(=O)Nc1ccc(S(=O)(=O)NC(C)c2nc3ccccc3c(=O)n2/N=C/c2cccc(F)c2)cc1 (stereo not given)
- IC50 (Plasmodium falciparum): 0.092 µg/mL (≈ 0.181 µM)
- IC50 (Dihydrofolate reductase): 53.2 nM
- Activity (Vero): Non-Toxic
- selectivity ratio (bovine liver DHFR): 556

Compound: CC(=O)Nc1ccc(S(=O)(=O)NC(C)c2nc3ccccc3c(=O)n2/N=C/c2cccc(C)c2)cc1 (stereo not given)
- IC50 (Plasmodium falciparum): 0.72 µg/mL (≈ 1.43 µM)

Compound: CC(=O)Nc1ccc(S(=O)(=O)NC(C)c2nc3ccccc3c(=O)n2/N=C/c2ccccc2Br)cc1 (stereo not given)
- IC50 (Plasmodium falciparum): 0.78 µg/mL (≈ 1.37 µM)

Compound: CC(=O)Nc1ccc(S(=O)(=O)NC(C)c2nc3ccccc3c(=O)n2/N=C/c2cccc(O)c2)cc1 (stereo not given)
- IC50 (Plasmodium falciparum): 1.01 µg/mL (≈ 2 µM)

Compound: CC(=O)Nc1ccc(S(=O)(=O)NC(C)c2nc3ccccc3c(=O)n2/N=C/c2ccc(Br)cc2)cc1 (stereo not given)
- IC50 (Plasmodium falciparum): 0.67 µg/mL (≈ 1.18 µM)

Compound: COc1ccc(/C=N/n2c(C(C)NS(=O)(=O)c3ccc(NC(C)=O)cc3)nc3ccccc3c2=O)cc1 (stereo not given)
- IC50 (Plasmodium falciparum): 0.67 µg/mL (≈ 1.29 µM)

Compound: C=C[C@H]1CN2CC[C@H]1C[C@H]2[C@H](O)c1ccnc2ccc(OC)cc12 [QUININE]
- IC50 (Plasmodium falciparum): 0.268 µg/mL (≈ 0.826 µM)

Compound: CC(=O)Nc1ccc(S(=O)(=O)NC(C)c2nc3ccccc3c(=O)n2/N=C/c2cccc(Cl)c2)cc1 (stereo not given)
- IC50 (Plasmodium falciparum): 1.01 µg/mL (≈ 1.93 µM)

Compound: CC(=O)Nc1ccc(S(=O)(=O)NC(C)c2nc3ccccc3c(=O)n2/N=C/c2ccccc2[N+](=O)[O-])cc1 (stereo not given)
- IC50 (Plasmodium falciparum): 0.7 µg/mL (≈ 1.31 µM)

Compound: CC(=O)Nc1ccc(S(=O)(=O)NC(C)c2nc3ccccc3c(=O)n2/N=C/c2ccccc2Cl)cc1 (stereo not given)
- IC50 (Plasmodium falciparum): 1.05 µg/mL (≈ 2.01 µM)

Compound: CC(=O)Nc1ccc(S(=O)(=O)NC(C)c2nc3ccccc3c(=O)n2/N=C/c2ccc([N+](=O)[O-])cc2)cc1 (stereo not given)
- IC50 (Plasmodium falciparum): 0.084 µg/mL (≈ 0.157 µM)
- IC50 (Dihydrofolate reductase): 82.3 nM
- Activity (Vero): Non-Toxic
- selectivity ratio (bovine liver DHFR): 341
